Results on 64 compounds are retold here after PubChem BioAssay AID489034 (Sanford-Burnham Center for Chemical Genomics, 2010).

The structures appear in SMILES notation. Calls of active or inactive are those of the source.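 How the source made its calls: active means mean IC50 at or below a set limit; inactive means the rest.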 A value given as a limit tells only on which side of the number the result lay.

The assay deals with 697 B-cell NF-kB luciferase reporter, PMA/ionomycin, 16 h. Description: inhibitors of antigen receptor-driven NF-kB, dose response, 697 B cells, PMA/ionomycin, luminescence (AID 489034).

For the compound `Nc1ncnc2c1ccn2[C@@H]1O[C@H](CO)[C@@H](O)[C@H]1O`, the concentration for half-maximal inhibition (IC50) (in general, the point on the concentration scale where inhibition reaches its midpoint) was 1.01 µM.

Regarding `Cn1nccc1C(=O)NC1CCCc2c1cnn2-c1ccccc1F` (centres undefined), the IC50 was 56.3 µM (inactive). The figure for `CCOc1ccc(S(=O)(=O)NCc2ccncc2)cc1` is > 80 µM (inactive).

In the case of `Cc1ccc(NC(=O)COc2ccc(N(C)C(=O)C(C)(C)C)cc2)cc1S(=O)(=O)N1CCCCC1`, the IC50 is > 80 µM (inactive). In the case of `Cc1cc([N+](=O)[O-])nn1Cc1ccccc1F`, the IC50 was > 80 µM (inactive). As to `O=C(CN1C(=O)c2ccccc2S1(=O)=O)c1ccc2c(c1)OCCCO2`, the IC50 was less than 0.16 µM. Take `NC1=NC[C@H](Cc2ccc(O)cc2)N1CCCCC1CCCCC1`: the IC50 is > 80 µM (inactive). Regarding `CCCCCCCCCCCCn1ccc(=N)cc1`, the IC50 was 9.19 µM. Consider `OCCCNc1cc(-c2ccnc(Nc3cccc(Cl)c3)n2)ccn1`, for which the IC50 was less than 0.16 µM.

For the compound `COc1cc(NC(=O)COc2cc(O)c3c(c2)OC(C)(C)CC3=O)cc(OC)c1OC`, the IC50 was 36.9 µM (inactive).

`C=C1C(=O)O[C@@H]2C[C@@H](C)[C@@H]3C=CC(=O)[C@@]3(C)[C@@H](OC(C)=O)[C@H]12`: the IC50 is > 80 µM (inactive). The figure for `COc1ccc(CCNc2ncnc3sccc23)cc1OC` is 77.4 µM (inactive); for `CC1CCc2c(sc(NC(=O)CSc3ncn[nH]3)c2C#N)C1` (centres undefined) it is 0.209 µM. `C[C@@H]1C[C@@H]2O[C@H]2/C=C\C=C\C(=O)Cc2c(Cl)c(O)cc(O)c2C(=O)O1`: the half-maximal inhibitory concentration (IC50) is 0.275 µM. As for `C[C@@H]1O[C@@H](O[C@@H]2C=C3CCC4C(CC[C@]5(C)[C@@H](c6ccc(=O)oc6)CC[C@]45O)[C@@]3(C)CC2)[C@H](O)[C@H](O)[C@H]1O` (some centres undefined), the half-inhibitory concentration (IC50) was less than 0.16 µM. For `CC1(c2ccc3ccccc3c2)NC(=O)N(CC(=O)N2CCN(Cc3ccc(C#N)cc3)CC2)C1=O` (centres undefined), the IC50 is > 80 µM (inactive). Consider `COc1ccc(OC)c(C2C3=C(COC3=O)Nc3cc4c(cc32)OCO4)c1` (centres undefined), for which the IC50 is > 80 µM (inactive).

For `CCCCCCCCn1ccc(=N)cc1`, the IC50 is > 80 µM (inactive).

For the compound `CC(Nc1ncnc2sccc12)c1ccccc1` (centres undefined), the IC50 was 64.4 µM (inactive). Under `CCN(CC)S(=O)(=O)c1ccc(Oc2ccc(S(=O)(=O)N(CC)CC)cc2)cc1` stands > 80 µM (inactive); under `CCOc1ccc(NC(=O)Nc2cccc(C(=O)O)c2)cc1`, 0.504 µM; under `COc1cccc2c1C(=O)c1c(O)c3c(c(O)c1C2=O)C[C@@](O)(C(=O)CO)C[C@@H]3O[C@H]1C[C@H](N)[C@@H](O)[C@H](C)O1`, 3.53 µM. As to `c1ccc2sc(Sc3ncnc4sccc34)nc2c1`, the IC50 was 0.197 µM.

For the compound `C[n+]1c(-c2ccccc2)c2cc(N)ccc2c2ccc(N)cc21`, the IC50 is > 80 µM (inactive). On to `COc1ccc(-c2cc3nc(C)n(N)c(=O)c3s2)cc1`, for which the concentration for half-maximal inhibition (IC50) was 0.673 µM. Under `Cc1ccc(OCCN2CCN(c3ncnc4sc(C)c(C)c34)CC2)cc1` stands > 80 µM (inactive). For the compound `CC(C)Cc1cc(C(C)(C)C)ccc1OC(=S)N(C)C`, the IC50 is > 80 µM (inactive). Take `COc1cc([N+](=O)[O-])cc(/C=N/NC(=O)c2ccc(NC(=O)c3ccc(C)cc3)cc2)c1O`: the concentration for half-maximal inhibition (IC50) was 1.02 µM. On to `COc1cc2nc(NC(=O)c3ccccc3)sc(=O)c2cc1OC`, for which the half-maximal inhibitory concentration (IC50) was 0.444 µM. `COCCn1c(C)cc(C2=NNC(=NC3CC3)SC2)c1C`: the half-inhibitory concentration (IC50) is less than 0.16 µM. As for `CCc1ccc(-c2nc(CS(=O)CC(=O)NCc3ccco3)c(C)o2)cc1` (centres undefined), the IC50 was > 80 µM (inactive). `COc1ccc(/C=C2\SC(=O)N(CCCC(=O)Nc3cc(Cl)ccc3C(=O)O)C2=O)cc1`: the half-maximal inhibitory concentration (IC50) was 0.331 µM.

For `C[C@@H]1O[C@@H](O[C@@H]2C=C3CC[C@@H]4C(CC[C@]5(C)[C@@H](c6ccc(=O)oc6)CC[C@]45O)[C@@]3(C)CC2)[C@H](O)[C@H](O)[C@H]1O` (some centres undefined), the IC50 was less than 0.16 µM.

On to `Cc1cc2sc3ccc(C#CC4(O)CCCCC4)cc3c(=O)c2cc1C`, for which the concentration for half-maximal inhibition (IC50) is less than 0.16 µM.

Take `O=C(NCCc1ccccc1)c1ccc2c(c1)OCCCO2`: the IC50 was 0.366 µM. The figure for `COc1ccc(CCNc2ncnc3sc(C)cc23)cc1OC` is 33.4 µM (inactive); for `COc1cc(CSc2nnnn2-c2ccc(C)cc2)cc(OC)c1OC` it is > 80 µM (inactive). On to `COc1ccc(NS(=O)(=O)c2cccc(NC(=O)c3ccc(Cl)nc3)c2)cc1`, for which the IC50 is 70.3 µM (inactive). In the case of `C[C@H](NC(=O)c1nc[nH]c1C(=O)N[C@@H](C)C(=O)OCc1ccccc1)C(=O)OCc1ccccc1`, the IC50 is > 80 µM (inactive).

In the case of `CCOc1ccc(/C=C2\SC(=S)N(CCC(=O)O)C2=O)cc1`, the IC50 was 0.211 µM. For the compound `CCOc1cc(S(=O)(=O)NCc2ccncc2)ccc1Cl`, the IC50 is > 80 µM (inactive).

Consider `C#CC(=O)N(c1cc(OC)ccc1OC)C(C(=O)NC1CCCC1)c1cccs1` (centres undefined), for which the half-maximal inhibitory concentration (IC50) was 0.219 µM.

On to `OCCCNc1nccc(-c2cc(Nc3cccc(Cl)c3)ncn2)n1`, for which the IC50 was 4.1 µM.

Regarding `Cc1cc(C(=O)COC(=O)c2ccccc2O)c(C)n1CC1CCCO1` (centres undefined), the 50% inhibitory concentration (IC50) was 0.267 µM. Consider `COC1=CC(=O)[C@]2(C=C1OC)OC[C@@H]1Oc3c(ccc4c3C=CC(C)(C)O4)C(=O)[C@@H]12`, for which the IC50 is 47.7 µM (inactive). On to `O=C(CCl)N=c1sccn1Cc1ccccc1Cl`, for which the IC50 was 0.222 µM. With `C#CC(=O)N(c1cccc(OC)c1)C(C(=O)NC1CCCC1)c1cccs1` (centres undefined), the half-maximal inhibitory concentration (IC50) is 0.219 µM. The figure for `O=C(CSc1nnnn1C1CC2CCC1C2)Nc1ccnc2ccccc12` (centres undefined) is > 80 µM (inactive); for `CCCCC[n+]1cccc2c3ccccc3ccc21` it is > 80 µM (inactive); for `O=C(COC(=O)c1ccc[nH]c1=O)Nc1ccc(N2CCCCC2)cc1` it is 0.436 µM. As to `Cc1ccnc(NC(=O)CCCOc2cc(=O)n(C)c3ccccc23)c1`, the IC50 is 8.54 µM.

For the compound `Cc1ccc2nc(NC(=O)CCCC(=O)O)sc2c1`, the IC50 is 2.13 µM. As for `COc1ccc(-c2nc(-c3ccccn3)no2)cc1`, the half-maximal inhibitory concentration (IC50) is 0.872 µM.

Regarding `CCCCCCCCCCOC(=O)Cn1c(COc2ccccc2OC)[n+](C)c2ccccc21`, the IC50 is > 80 µM (inactive). For `CC(C)(C)c1ccc(C(=O)N2CCCCCC2=O)cc1`, the half-maximal inhibitory concentration (IC50) was 0.579 µM. Turning to `CN=c1scc(-c2ccccc2F)n1/N=C/c1ccc[nH]1`, the IC50 was 0.702 µM. Regarding `CC(=O)O[C@H]1[C@H]2O[C@]23[C@@H]2CC[C@]4(O)C[C@@H](O)CC[C@]4(C)C2CC[C@]3(C)[C@H]1c1ccc(=O)oc1` (some centres undefined), the IC50 is 0.223 µM.

For `O=C(Nc1cccc(C(=O)O)c1)Nc1ccc2c(c1)OCO2`, the IC50 was 1.14 µM. Under `CCOC(=O)C1CCCN(S(=O)(=O)c2ccc(S(=O)(=O)N(CC)CC)cc2)C1` (centres undefined) stands > 80 µM (inactive); under `CC(C)(C)c1ccc(C(=O)Nc2ccc(CC(=O)O)cc2)o1`, less than 0.16 µM; under `c1ccc(-c2ccc(-c3nc(-c4ccccn4)no3)cc2)cc1`, 0.967 µM. Consider `Cc1cc(Cl)c(S(=O)(=O)N2CCN(c3ccc(F)cc3)CC2)cc1OCC(=O)NC1CCCCC1`, for which the IC50 is > 80 µM (inactive).

As to `COc1ccccc1C(=O)Nc1nc2ccccc2[nH]1`, the concentration for half-maximal inhibition (IC50) is 0.454 µM. As for `C=C1C(=O)O[C@@H]2C[C@@H](C)[C@@H]3C=CC(=O)[C@@]3(C)[C@@H](O)[C@H]12`, the IC50 was > 80 µM (inactive).
